Measurements as given in publication PMC6856681, “Accumulation of Dietary S‐Methyl Cysteine Sulfoxide in Human Prostate Tissue” (Molecular Nutrition & Food Research, 2019).
Like-named read-outs stand apart in the source and are kept apart here. Blank lines part the entries; values can stand above or below the compound they belong to.

How the values were obtained:
[1] = SAP study: metabolites in prostate biopsy tissue, peri-prostatic adipose tissue and urine after 4 weeks of broccoli soup supplementation vs control; format: in vivo, human
Source text: The SAP study (Figure 2) was a two-arm, parallel un-blinded, dietary-supplementation study, delivering a short, high-dose broccoli soup supplement to a habitual diet to men in the pre-biopsy window before a trans-perineal prostate biopsy (TPB). The primary aim was to determine whether supplementation of a diet with a broccoli soup would enhance the levels of […] and other broccoli-derived metabolites in the prostate of men scheduled for prostate biopsy. Eighteen men were randomized to either continue their normal diet (non-supplementation controls) or receive three portions of a glucoraphanin-rich broccoli soup (300 g) per week for a minimum of 4 weeks manufactured from a broccoli cultivar heterozygous for a Myb28^villosa allele, as previously described.19 On the study day, samples of whole blood, urine (following a digital rectal prostatic massage), prostate, and peri-prostatic adipose tissue were collected. The protocol was approved by the Human Research Governance Committee ([…] 01/2016) at Quadram Institute Bioscience and given full ethical approval by The East of England - Cambridge East Research Ethics Committee (ref: 16/EE/0054). The trial was registered on a publicly accessible database (ClinicalTrials.gov, NCT02821728). A sample of whole blood for genotyping was obtained via the intravenous cannula inserted for use by the anesthetist, thus avoiding additional venipuncture. After prostatic massage, a first-pass urine sample was collected. TPB was performed under general or spinal anesthesia with appropriate antibiotic prophylaxis. Once anesthetized, the patient was positioned supine with their legs elevated in stirrups. A template grid was placed on the skin of the perineum and the prostate visualized by trans-rectal ultrasound scan. […] For the SAP study, eight biopsy cores of prostate tissue were taken from a region of the prostate not known or suspected to contain cancer. Five of these were snap frozen for metabolite analyses, two in RNAlater, and one in methanol. Two additional cores were taken from peri-prostatic adipose tissue and snap frozen. Snap-frozen tissue cores were individually weighed on a high-sensitivity balance and transferred to screw-top tubes. Two hundred microliters of cold Milli- Q® water and […] of autoclaved, acid-washed 710 to 1180 μm glass beads were added to each tube. […] The samples were then placed on a revolving shaker for 15 min at 4 °C. The tubes were centrifuged at 17 000 × g for 10 min at 4 °C and 50 μL of supernatant transferred to a new Eppendorf. 10 μL of 50% trichloroacetic acid (TCA) were added to each sample to precipitate proteins. The centrifugation step was repeated and 50 μL of supernatant transferred to HPLC insert vials for analysis by LC-MS/MS. […] Stock solutions of 1 mg mL^-1 sulfate (Sigma) and SMCSO (LKT laboratories Inc.) were generated by dilution of weighed powder into Milli-Q water. Serial fivefold dilutions were performed in the relevant matrix to produce 6-point calibration curves from 10 to 0 μg mL^-1 on the day of analysis. Sulfate was quantified using an Agilent 6490 triple-quad LC-MS mass spectrometer (Agilent technologies) with Thermo Scientific Hypercarb, Porous Graphitic Carbon (PGC) (3 × 50 mm, 3 μm) column. Two microliters were injected from each sample, with separation by 1% formic acid in Milli-Q water (mobile phase A) and 1% formic acid in methanol (mobile phase B). The gradient started at 8% mobile phase B, increasing to 70% over 5.5 min and returned to 8% mobile phase B for re-equilibration over the last 9.5 min. The column temperature was maintained at 60 °C and the flow rate at 0.3 mL min^-1. […] SMCSO was quantified with the Agilent system described above. […] Snap-frozen tissue cores were individually weighed on a high-sensitivity balance and transferred to screw-top tubes. Two hundred microliters of cold Milli-Q water and […] of autoclaved, acid-washed 710 to 1180 μm glass beads (Sigma) were added to each tube. […]

[2] = Effect of heating the soup to boiling (microwave or conduction) on metabolite amount; format: physicochemical; conditions: heating to boiling by microwave or conduction vs unheated control
Source text: One portion of soup contained 280 ± 8.8 µmoles of glucoraphanin and 1513 ± 36.8 µmoles of SMCSO. The soup was provided frozen and heated up prior to consumption using a standard procedure. Heating either by microwave or conduction had no effect on SMCSO or glucoraphanin concentration (Figure 3).
Figure 3 The effect of heating soup to boiling on amount of a) glucoraphanin and b) SMCSO compared to unheated control by microwave or conduction heating. Columns are means of two independent samples.

[3] = set-up: method as in Sivapalan et al.19; conditions: human, ref Sivapalan et al.19, cited from earlier work
[4] = human, cited from earlier work
[5] = SMCSO in tissue cores from radical prostatectomies of men not in a dietary study; format: in vivo, human; conditions: two cores from each of four glands
Source text: To further explore the presence of un‐metabolized SMCSO in the prostate gland of men who had not been within a dietary study, tissue samples were obtained from patients who had endoscopic extraperitoneal radical prostatectomies. Access to tissue and subsequent analyses were undertaken under ethical approval granted from the Faculty of Medicine and Health Sciences Research Ethics Committee of the University of East Anglia (FMHS 20122014–37). The prostate gland was removed from the abdominal cavity immediately after resection and rapidly biopsied after extraction to avoid ischemic artifacts using a standard core biopsy instrument, as previously described.23 The extracted whole prostatectomy specimen was placed on a surgical table, the apex and base of the gland were identified, and the prostate cut transversely (axial section) half way along the gland. With the use of the midline and the urethra as guides, biopsies were taken from the peripheral zones avoiding obvious tumor sites where feasible. Two cores were taken from each of four glands for analyses. The tissue was snap frozen and analyzed for the presence of SMCSO as described above.

[6] = Feeding of 35S-labeled SMCSO to human volunteers, recovery of label in urine (Waring et al.); format: in vivo
Source text: Previously, there has been only a single study of the metabolism of SMCSO in humans. Waring and colleagues describe the feeding of ^35S‐labeled SMCSO to human volunteers, and the recovery of 96% of the label in urine after 14 days, of which 40% was inorganic sulfate, indicating almost complete absorption of SMCSO (and/or its colonic microbiological derivatives).18 How SMCSO was metabolized is unknown, but it is likely that it was due to initial cysteine‐S‐conjugate β lyase activity by gut microbiome, as opposed to mammalian enzyme activity.

[7] = both, human, in vivo
Experimental: (§1) SMCSO was quantified with the Agilent system described above. Samples were injected at 2 µL eluted at a flow rate of 0.3 mL min^–1 on an Agilent SB‐AQ 1.8 µM (100 × 21 mm) C18 column. Separation was carried out using 10 mM ammonium acetate + 0.05% hetafluorobutyric acid in Milli‐Q water (mobile phase A) and 10 mM ammonium acetate + 0.05% hetafluorobutyric acid in 90% methanol (mobile phase B). The gradient started at 2% mobile phase B, increasing over 2 min to 5% B and returning to 2% mobile phase B for re‐equilibration over the last 2 min. The column was set at 20 °C due to the instability of SMCSO at high temperatures. The LC eluent flow was sprayed into the mass spectrometer interface without splitting. SMCSO ion was monitored by MS in MRM mode (m/z = 87.9) in positive polarity with ESI. The source parameters were: gas temperature 200 °C, gas flow 16 L min^–1, sheath gas temperature 300 °C with a sheath gas flow of 11 L min^–1, a nebulizer pressure of 50 psi, and capillary voltage 3500 V. Quantification was performed by peak area against the matrix‐matched standard curve, and identification by retention time and product ions.
(§2) To quantify the amount of SMCSO in plasma and urine from a single portion of soup, samples were analyzed from a previously described acute intervention study (NCT02300324).24 In this study, ten volunteers consumed a single portion of the identical soup to that used in the SAP study as described above as part of a three‐phase cross‐over study. Briefly, men and woman aged 18–65 years with a BMI between 19.5 and 35 kg m^–2 were enrolled into a dietary intervention trial undertaken at the Human Nutrition Unit of the Quadram Institute Bioscience Subjects were recruited on the basis of fasted (≥8 h) screening blood/urine samples and a completed health questionnaire. The study involved a 48‐h pre‐intervention diet restriction, a study day involving a 9‐h stay at the HNU and a sample collection the following morning (24 h post soup consumption) followed by a washout period of 2 weeks. […]

[8] = set-up: method as in PMID 14768973; conditions: cited from earlier work
clinical = conditions: both, human, in vivo
Experimental: as §1, §2

[9] = read-out: Plasma C max; following a portion of cruciferous vegetables, transient; cited from earlier work
[10] = human prostate biopsy cores, LC–MS/MS, both study arms

Compound: C[S@@+]([O-])CCCC/C(=N/OS(=O)(=O)O)S[C@@H]1O[C@H](CO)[C@@H](O)[C@H](O)[C@H]1O [Glucoraphanin, 4‐Methylsulphinylbutyl glucosinolate]
- Detection in prostate tissue [1, 10]: No glucoraphanin or sulforaphane (and its thiol conjugates) was detected
- Effect of heating on concentration in the soup [2]: no effect
- Plasma C24h ([3]; 24 h after single 300 mL portion of broccoli soup): <10 nM
- Plasma AUC ([3]; single 300 mL portion of broccoli soup (280 µmoles glucoraphanin)): 0.15 ± 0.08 µM·h
- Cmax ([3]; single 300 mL portion of broccoli soup (280 µmoles glucoraphanin), read-out: Plasma Cmax): 30 ± 10 nM
- Plasma Tmax ([3]; single 300 mL portion of broccoli soup): 2.23 ± 0.09 h
- Urine: percentage excreted after 24 h ([4]; percentage of consumed glucoraphanin excreted intact, ref Sivapalan et al.19): 0.51 ± 0.24%
- Urine: total excreted in 24 h ([4]; single 300 mL portion of broccoli soup (280 µmoles glucoraphanin), ref Sivapalan et al.19): 1.44 ± 0.66 µmol
- Conversion of glucoraphanin to sulforaphane ([4]; value assumed for the dose-equivalent calculation): 8%

- Detection in prostate tissue ([1]; in vivo): present
- Proportion of SMCSO absorbed from the GI tract ([6]; concluding statement): ~100%
- Proportion of consumed SMCSO that is metabolized in vivo ([6]; inferred from this study together with Waring et al. 18): about 90%
- Plasma concentration of SMCSO relative to that of glucoraphanin or sulforaphane [7]: about 1000 fold
- concentration at 24 h (clinical): 4660 ± 1520 nM
- Tmax (clinical; Plasma Tmax): 1.4 h
Compound: C[S@+]([O-])C[C@H](N)C(=O)O [SMCSO, (+)‐S‐methyl cysteine sulfoxide]
- SMCSO level in peri-prostatic adipose tissue ([1]; in vivo): higher levels than in prostate tissue but without significant difference between the two groups
- SMCSO level in urine, supplement group vs control ([1]; in vivo): higher in urine in the supplement group compared to the control
- Detection of SMCSO in radical prostatectomy tissue samples [5]: detected in seven of the eight tissue samples
- Effect of heating on concentration in the soup [2]: no effect
- Share of recovered urinary label that was inorganic sulfate ([8]; human volunteers fed 35S-labeled SMCSO, 14 days): 40%
- Recovery of 35S label in urine ([8]; human volunteers fed 35S-labeled SMCSO, after 14 days): 96%
- Proportion of SMCSO absorbed (as un-metabolized SMCSO or unknown derivatives) ([8]; human): 97%

Compound: C[S+]([O-])CCCCN=C=S (centres unmarked) [Sulforaphane, sulforaphane]
- Detection in prostate tissue [1, 10]: No glucoraphanin or sulforaphane (and its thiol conjugates) was detected
- Sulforaphane in urine ([1]; human, participants in both arms): detected in urine from participants in both arms of the study
- Cmax [9]: < 1000 nM

Compound: O=S(=O)(O)O [sulfate]
- Sulfate level in prostate tissue between the two dietary arms ([1]; human prostate biopsy cores): no significant difference
